The source of these data is EP0559571A1, “Thiazolidine-2,4-dione derivatives, process for their preparation and pharmaceutical compositions containing them” (ADIR ET COMPAGNIE, priority 1992, dated 1993).

Some results are limits rather than exact numbers.

In one assay the test system is souris ob/ob. As to the kind of experiment: Hypoglycaemic activity in a non-insulin-dependent diabetes (NIDDM) model, ob/ob mouse. The settings on record: ob/ob mice; for Pouvoir hypoglycémiant: at the equi-effective dose of Table 1, 4 days oral, base 100; for Dose provoquant le même effet hypoglycémiant: oral, daily for 4 days, glycaemia at J0 and J5, dose giving the same hypoglycaemic effect (base 100); for minimal effective dose: read-out: DMA (dose minimum active montrant une diminution de la glycémie de 10 à 15 %). Type of assay: in vivo. From the text: Les animaux (souris ob/ob) sont traités chaque jour, pendant 4 jours, en administrant par voie orale les composés de l'invention en suspension dans une solution à 20 % de gomme du Sénégal. Avant et après traitement, soit à J₀ et à J₅, le sang est prélevé par ponction du sinus orbital et la glycémie est déterminée. Le tableau 1 présente les doses des différents produits à administrer pour obtenir le même effet hypoglycémiant (base 100).
L'étude d'un effet-dose montre que la dose donnant une diminution de la glycémie initiale de 30 % : ED₃₀ pour le composé de l'exemple 2 est inférieure à 0,1 mg/kg alors que celle de la pioglitazone est comprise entre 5 et 10 mg/kg. La dose minimum active : DMA montrant une diminution de la glycémie de 10 à 15 % est de 0,1 mg/kg pour le composé de l'exemple 2 alors qu'elle est de 3 mg/kg pour la pioglitazone.

The test system of a further assay is rats Zucker Fa/Fa mâles. As to the kind of experiment: Model of decreased glucose tolerance with hyperinsulinaemia and hyperlipaemia, male Zucker Fa/Fa rats. The format is in vivo. The settings on record: 5 mg/kg/day oral for 10 days, blood on day 11, control = 100; for AGL (%): free fatty acids; for TG (%): triglycerides. On the procedure: Les animaux (rats Zucker Fa/Fa mâles) sont traités, chaque jour, pendant 10 jours en administrant, par voie orale, les composés de l'invention à la dose de 5 mg/kg/jour en suspension dans une solution à 20 % de gomme du Sénégal. Le 11ème jour, les animaux sont sacrifiés et le sang recueilli afin de déterminer la glycémie, les triglycérides plasmatiques et l'insuline immuno-réactive. D'autre part, les animaux sont pesés avant et après traitement.
Dans ces conditions, les composés de l'invention n'ont pas d'influence sur le taux de glucose circulant mais diminuent le taux de triglycérides et d'acides gras libres plasmatiques ainsi que celui de l'insuline immuno-réactive. Cette activité est égale ou supérieure à celle d'autres dérivés de thiazolidinedione de référence.

Where [1] appears, read: Mus musculus, po, dose-effect study.

Consider `CC1(COc2ccc(CC3SC(=O)NC3=O)cc2)CCCCC1` (stereo not drawn) [Ciglitazone], for which, in the assay with souris ob/ob, the “Pouvoir hypoglycémiant” value amounted to 100 and the “Dose provoquant le même effet hypoglycémiant” value is reported as 50-100 mg/kg/jour.
The corresponding values for `Cc1c(C)c2c(c(C)c1O)CCC(C)(COc1ccc(CC3SC(=O)NC3=O)cc1)O2` (stereo not drawn) [CS 045] are 100 and 150-200 mg/kg/jour.
As for `O=C1NC(=O)C(Cc2ccc3oc(Cc4ccc5ccccc5c4)cc3c2)S1` (racemic) [Exemple 2, 5-[2-(2-Naphtylméthyl)-5-benzofuranylméthyl] thiazolidine-2,4-dione], in the assay with souris ob/ob (setting [1]), the minimal effective dose amounted to 0.1 mg/kg. Also, the ED30 in the assay on souris ob/ob (Mus musculus, po, dose-effect study, read-out: ED30 (dose donnant une diminution de la glycémie initiale de 30 %)) was less than 0.1 mg/kg. In the assay with souris ob/ob, the “Pouvoir hypoglycémiant” value was 100 and the “Dose provoquant le même effet hypoglycémiant” value is 5-10 mg/kg/jour. In the assay on rats Zucker Fa/Fa mâles, the “Glycémie (%)” value is 97%, the “Plasma insuline (%)” value was 50%, the “AGL (%)” value was found to be 48% and the “TG (%)” value was found to be 35%.
Turning to `O=C1NC(=O)C(Cc2ccc3c(c2)CC[C@H](Cc2ccccc2)O3)S1` (stereo partly drawn) [Englitazone], in the assay with souris ob/ob, the “Pouvoir hypoglycémiant” value stood at 100 and the “Dose provoquant le même effet hypoglycémiant” value is given as 10-20 mg/kg/jour.
Consider `CCc1ccc(CCOc2ccc(CC3SC(=O)NC3=O)cc2)nc1` (stereo not drawn) [Pioglitazone], for which the minimal effective dose in the assay on souris ob/ob (setting [1]) was 3 mg/kg. In the assay on souris ob/ob, the “Pouvoir hypoglycémiant” value is listed as 100 and the “Dose provoquant le même effet hypoglycémiant” value was 10 mg/kg/jour. Moreover, in the assay with rats Zucker Fa/Fa mâles, the “Glycémie (%)” value stood at 103%, the “Plasma insuline (%)” value was 61%, the “AGL (%)” value is given as 52% and the “TG (%)” value is given as 44%.
